These results are taken from patent publication US11505526B2, “Aryl-piperidine derivatives” (Artax Biopharma Inc., priority 2017, dated 2022).

Where two headings read alike, the source gives them in different places.

A word on the IC50: it is the midpoint of a concentration-inhibition curve. In general, inhibition refers to the share of the control response that was lost under treatment.

In one series the target is CYP1A2 (Homo sapiens (Human), UniProt P05177). Briefly: CYP inhibition, CYP1A2. As to conditions: microsomes, metabolite acetaminophen. It is filed as in vitro ADME. The method, then: (§1) For each isozyme, microsomes-buffer-substrate mixture (MBS mix) is prepared by premixing appropriate volumes of buffer, microsomes and substrate. MBS mixture (179 μL) is transferred to a 96-well reaction plate. An aliquot (1 μL) is spiked from corresponding wells of Test Item stock solution plate to reaction plate. The reaction plate is pre-incubated for 5 minutes at 37° C. Reaction is initiated by the addition of 20 μL of NADPH solution. Each experiment is performed in duplicate. Reaction plate is incubated for predetermined time at 37° C. and quenched using either 200 μL of acetonitrile (for CYP2C9, CYP2D6, CYP2C19 and CYP3A4) or 200 μL of a mixture of 70:30 1% formic acid:acetonitrile (for CYP1A2).

Another series has as its target CYP2C9 (Homo sapiens (Human), UniProt P11712). Briefly: CYP inhibition, CYP2C9. To be noted: microsomes, metabolite 4-hydroxy diclofenac. It is filed as in vitro ADME. The method, then: as §1
For the next series, the target named is CYP2C19 (Homo sapiens (Human), UniProt P33261). Briefly: CYP inhibition, CYP2C19. It is filed as in vitro ADME. To be noted: microsomes, metabolite 4′-hydroxy mephenytoin. The method, then:
as §1

The target in another series is CYP2D6 (Homo sapiens (Human), UniProt P10635). Briefly: CYP inhibition, CYP2D6. As to conditions: microsomes, metabolite dextrorphan. It is filed as in vitro ADME. The method, then: as §1
The target of a further series is CYP3A4 (Homo sapiens (Human), UniProt P08684). The series can be described thus: CYP inhibition, CYP3A4. It is filed as in vitro ADME. As to conditions: footnote not given, CYP3A4 metabolites monitored: 1-hydroxy midazolam, 6-β-hydroxy testosterone. The method, then:
as §1

The nature of series [1]: Microsomal stability, mouse liver microsomes. To be noted: 0.5 mg/mL protein, read-out: Microsomal stability (T1/2 min) Mouse. It is filed as in vitro ADME. The method, then:
(§2) Intrinsic clearance studies are performed individually with mouse, rat and human liver microsomes at 0.5 mg/mL protein concentration. Briefly, for protein concentration 0.5 mg/mL assay, liver microsomal protein (12.5 uL), NAPDH (50 uL) and phosphate buffer (435 uL) are co-incubated (pre-incubation) in a 96-well deep well plate in an orbital incubator (10 min, 37° C.). Reactions are initiated by the addition of 2.5 uL of test item working stock solution (100 uM). Aliquots (50 uL) are withdrawn from the reaction tube at 0, 5, 10, 20 and 30 minutes and the reaction is immediately terminated by transferring to a 96 deep well plate containing 50 uL of acetonitrile. Verapamil is used as a positive control in mouse, rat and human liver microsomes. To the quenched samples internal standard is added and vortex mixed followed by centrifugation at 4000 rpm for 10 minutes and an aliquot of supernatant is taken for LC-MS/MS analysis. Samples are analyzed by a suitable fit-for-purpose multiple reaction monitoring method developed on LC-MS/MS using and API 4000 mass spectrometer to estimate the area ratio (analyte peak area/internal standard peak area).
(Liver microsomes are a subcellular fraction often used to study metabolism.)

Series [2] can be described thus: Microsomal stability, rat liver microsomes. It is filed as in vitro ADME. To be noted: 0.5 mg/mL protein, read-out: Microsomal stability (T1/2 min) Rat. The method, then:
as §2

The nature of series [3]: Microsomal stability, human liver microsomes. It is filed as in vitro ADME. As to conditions: 0.5 mg/mL protein, read-out: Microsomal stability (T1/2 min) Human. The method, then:
as §2

The next series has as its target hERG (Homo sapiens (Human), UniProt Q12809). Briefly: hERG inhibition, patch clamp (Port-a-Patch) on HEK cells stably transfected with the hERG clone, IKr current. It is filed as cell-based. As to conditions: concentrations tested 1, 3, 10 and 30 μM. The method, then:
(§3) HEK cells stably transfected with the hERG clone are maintained at 37±2° C. in a 5% CO2 incubator. The cells are initially revived and grown in DMEM/F12+GlutaMAX-I medium supplemented with 9% fetal bovine serum (FBS) and antibiotics (Penicillin 100 IU/mL Streptomycin 100 μg/mL) (complete medium). Furthermore, the cells are continuously maintained and passaged in complete media in addition to the appropriate concentration of selection antibiotic (Geneticin (G418) 200 μg/mL) (Selection media). The cells are sub cultured every 2-3 days and medium is changed with complete medium at least a day before the experiment.
(§4) The cells are harvested on the day of experiment, dislodged and suspended in sterile filtered external solution (NaCl 140 mM, KCl 4 mM, MgCl2 1 mM, CaCl2 2 mM, D-Glucose monohydrate 5 mM, Hepes/NaOH 10 mM, pH 7.4, Osmolarity:298+/−5 mOsmol).
(§5) The NPC®-1 chip of the Port-a-Patch® is filled with 5 μL of internal solution (KCl 50 mM, NaCl 10 mM, KFl 60 mM, EGTA 20 mM, Hepes/KOH 10 mM, pH 7.2, Osmolarity: 285+/−5 mOsmol) and it is screwed onto the chip holder. The Faraday cage is then fixed on the chip holder, such that the external electrode is placed near to the chip aperture. 5 μL of external solution is added to the center of the aperture so that the external electrode is also in contact with the solution.
(§6) The experiment is be initiated. […] The suction automatically attracts a cell to the aperture, resulting in an increase in the chip resistance. When the cell is captured and the set threshold for the resistance is reached, the software recognizes this increase in resistance and proceeds to the next step of the sealing procedure. 20 μL of seal enhancer solution (NaCl 80 mM, KCl 4 mM, MgCl2 10 mM, CaCl2) 35 mM, Hepes (Na+salt)/HCl pH 7.4, Osmolarity: 298+/−5 mOsmol) is added 2-3 times. When the threshold resistance is reached, Patch Control automatically moves to the step of improving the seal. When the desirable resistance (Rpip) is reached, whole cell mode is attained and maintained.
(§7) Finally, hERG protocol is selected to run the experiment. The seal enhancer solution is replaced with 20 μL external solution after 2-4 rinses and then the test item is added (from lower to higher concentration) and checked for current inhibition. All the experiments are performed at ambient temperature (22-25° C.).
(§8) A schematic diagram (FIG. 3) of the Pulse protocol: Cells are stimulated every 10 seconds using the following protocol. The holding potential, sweep intervals and the depolarization/repolarization potentials are furnished in the table below.
(§9) Once the stable current is attained (at least 2-5 minutes) vehicle control is added and the current measured till the stable current is achieved. 3-5 consecutive data points from the last stable current phase are considered for further analysis. […] The system performs on-line analysis for several parameters which include functions that acquire data from traces and functions that perform calculations on the results of other functions.
(The hERG channel carries a current that helps repolarise heart muscle cells.)

For a further series, the target named is hERG (IKr current) (Homo sapiens (Human), UniProt Q12809). The description is as above. It is filed as cell-based. To be noted: human, HEK cells stably transfected with the hERG clone, pH 7.4, IKr current. The method, then:
as §3, §4, §5, §6, §7, §8, §9

[4] abbreviates: CYP3A4^a, read-out: CYP IC50 uM CYP3A4^a.
Where [5] appears, read: read-out: Percent Inhibition Mean (%).
[6] abbreviates: read-out: Percent Inhibition Trial I.
Where [7] appears, read: read-out: Percent Inhibition Trial II.

CYP1A2, sequence (P05177 whole entry): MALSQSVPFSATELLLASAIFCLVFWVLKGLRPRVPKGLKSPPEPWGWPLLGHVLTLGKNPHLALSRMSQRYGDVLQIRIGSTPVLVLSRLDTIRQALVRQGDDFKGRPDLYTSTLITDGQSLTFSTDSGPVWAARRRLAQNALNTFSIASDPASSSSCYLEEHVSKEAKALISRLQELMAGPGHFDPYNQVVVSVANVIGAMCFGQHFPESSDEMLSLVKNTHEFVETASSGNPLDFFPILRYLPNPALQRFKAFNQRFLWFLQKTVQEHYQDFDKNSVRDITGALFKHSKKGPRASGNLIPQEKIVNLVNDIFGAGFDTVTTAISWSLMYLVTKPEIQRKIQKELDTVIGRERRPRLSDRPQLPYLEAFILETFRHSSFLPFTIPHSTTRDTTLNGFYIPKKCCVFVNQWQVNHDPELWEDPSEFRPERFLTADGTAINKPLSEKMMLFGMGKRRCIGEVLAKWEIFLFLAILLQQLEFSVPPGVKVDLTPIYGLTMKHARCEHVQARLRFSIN
CYP3A4, sequence (P08684 whole entry): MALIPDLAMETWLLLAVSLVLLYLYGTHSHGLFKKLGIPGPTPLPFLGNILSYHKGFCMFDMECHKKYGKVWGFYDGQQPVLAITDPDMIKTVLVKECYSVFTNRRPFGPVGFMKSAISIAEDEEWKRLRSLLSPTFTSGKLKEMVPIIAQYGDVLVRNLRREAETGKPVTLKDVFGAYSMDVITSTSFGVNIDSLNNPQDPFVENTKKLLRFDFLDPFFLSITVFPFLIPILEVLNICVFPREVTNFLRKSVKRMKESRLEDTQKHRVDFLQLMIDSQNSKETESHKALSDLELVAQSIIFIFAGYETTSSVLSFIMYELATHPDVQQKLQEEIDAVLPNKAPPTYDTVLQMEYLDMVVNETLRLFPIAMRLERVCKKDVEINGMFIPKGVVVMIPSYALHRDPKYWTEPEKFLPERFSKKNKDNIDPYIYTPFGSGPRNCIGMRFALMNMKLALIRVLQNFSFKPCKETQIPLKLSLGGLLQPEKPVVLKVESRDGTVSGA
CYP2C19, sequence (P33261 whole entry): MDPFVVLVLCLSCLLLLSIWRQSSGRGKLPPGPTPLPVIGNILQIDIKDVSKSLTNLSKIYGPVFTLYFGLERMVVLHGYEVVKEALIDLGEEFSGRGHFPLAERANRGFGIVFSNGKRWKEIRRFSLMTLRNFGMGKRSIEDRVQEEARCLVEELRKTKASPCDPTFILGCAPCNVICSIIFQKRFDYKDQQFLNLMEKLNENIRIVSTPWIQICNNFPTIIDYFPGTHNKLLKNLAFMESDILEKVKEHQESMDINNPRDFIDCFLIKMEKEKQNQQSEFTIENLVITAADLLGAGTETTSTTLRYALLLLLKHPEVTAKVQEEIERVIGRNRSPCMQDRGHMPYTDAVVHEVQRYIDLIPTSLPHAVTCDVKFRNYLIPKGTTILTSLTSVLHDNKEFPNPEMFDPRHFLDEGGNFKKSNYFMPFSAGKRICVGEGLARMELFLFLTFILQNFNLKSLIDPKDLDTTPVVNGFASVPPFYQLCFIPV
CYP2D6, sequence (P10635 whole entry): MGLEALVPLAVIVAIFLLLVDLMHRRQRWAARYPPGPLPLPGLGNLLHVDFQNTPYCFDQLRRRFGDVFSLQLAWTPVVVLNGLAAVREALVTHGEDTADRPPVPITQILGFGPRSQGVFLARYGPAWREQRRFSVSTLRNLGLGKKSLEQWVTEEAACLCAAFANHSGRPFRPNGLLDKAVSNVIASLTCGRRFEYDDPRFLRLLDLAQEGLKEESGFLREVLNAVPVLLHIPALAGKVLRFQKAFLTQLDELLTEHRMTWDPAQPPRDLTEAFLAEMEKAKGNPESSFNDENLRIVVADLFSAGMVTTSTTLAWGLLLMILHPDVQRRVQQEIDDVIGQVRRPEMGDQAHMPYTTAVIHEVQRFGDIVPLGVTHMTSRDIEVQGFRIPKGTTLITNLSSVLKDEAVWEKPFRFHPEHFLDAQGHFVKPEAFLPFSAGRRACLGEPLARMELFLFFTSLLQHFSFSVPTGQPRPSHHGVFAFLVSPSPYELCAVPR
hERG (IKr current), sequence (Q12809 whole entry): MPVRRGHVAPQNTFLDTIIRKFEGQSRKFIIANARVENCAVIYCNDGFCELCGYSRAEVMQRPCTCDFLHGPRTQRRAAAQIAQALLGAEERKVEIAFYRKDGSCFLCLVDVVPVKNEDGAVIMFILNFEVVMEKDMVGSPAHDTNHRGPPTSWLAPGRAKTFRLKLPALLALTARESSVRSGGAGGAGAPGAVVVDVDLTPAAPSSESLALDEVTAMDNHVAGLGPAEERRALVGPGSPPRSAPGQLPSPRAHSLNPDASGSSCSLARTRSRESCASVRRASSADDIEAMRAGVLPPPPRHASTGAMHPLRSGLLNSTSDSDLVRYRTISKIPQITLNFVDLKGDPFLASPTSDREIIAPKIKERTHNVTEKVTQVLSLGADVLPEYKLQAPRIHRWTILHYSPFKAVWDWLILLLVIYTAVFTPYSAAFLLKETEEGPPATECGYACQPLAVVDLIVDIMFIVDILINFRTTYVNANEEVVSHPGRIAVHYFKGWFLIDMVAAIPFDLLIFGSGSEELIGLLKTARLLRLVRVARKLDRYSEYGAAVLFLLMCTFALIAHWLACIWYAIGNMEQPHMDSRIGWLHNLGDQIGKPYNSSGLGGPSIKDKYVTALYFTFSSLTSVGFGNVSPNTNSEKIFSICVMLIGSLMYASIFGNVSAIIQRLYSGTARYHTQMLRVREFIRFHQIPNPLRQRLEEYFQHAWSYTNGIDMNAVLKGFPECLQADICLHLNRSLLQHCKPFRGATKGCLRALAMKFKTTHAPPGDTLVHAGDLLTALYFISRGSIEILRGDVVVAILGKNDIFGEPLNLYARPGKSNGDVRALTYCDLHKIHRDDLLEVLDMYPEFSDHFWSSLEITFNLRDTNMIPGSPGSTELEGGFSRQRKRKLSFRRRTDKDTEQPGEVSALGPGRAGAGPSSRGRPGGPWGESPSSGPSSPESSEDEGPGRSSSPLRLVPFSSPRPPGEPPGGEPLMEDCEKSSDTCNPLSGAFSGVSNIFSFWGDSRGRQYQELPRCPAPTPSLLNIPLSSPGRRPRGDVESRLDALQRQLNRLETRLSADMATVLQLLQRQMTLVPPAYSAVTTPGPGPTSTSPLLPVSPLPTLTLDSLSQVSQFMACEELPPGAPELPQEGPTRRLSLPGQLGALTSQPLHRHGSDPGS
hERG, sequence (Q12809 whole entry): as above
CYP2C9, sequence (P11712 whole entry): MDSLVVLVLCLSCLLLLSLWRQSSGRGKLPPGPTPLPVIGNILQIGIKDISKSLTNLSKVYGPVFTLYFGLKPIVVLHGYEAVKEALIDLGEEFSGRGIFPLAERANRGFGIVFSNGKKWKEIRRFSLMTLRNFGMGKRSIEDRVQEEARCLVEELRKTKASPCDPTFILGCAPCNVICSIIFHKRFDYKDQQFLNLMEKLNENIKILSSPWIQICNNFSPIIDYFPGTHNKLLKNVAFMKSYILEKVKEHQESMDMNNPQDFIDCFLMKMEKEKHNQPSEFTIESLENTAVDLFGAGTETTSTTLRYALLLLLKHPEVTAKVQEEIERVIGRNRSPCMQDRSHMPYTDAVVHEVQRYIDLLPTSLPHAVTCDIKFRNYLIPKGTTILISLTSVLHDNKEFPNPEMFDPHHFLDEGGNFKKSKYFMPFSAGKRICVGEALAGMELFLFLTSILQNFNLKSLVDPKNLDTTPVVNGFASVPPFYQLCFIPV

Consider `O=C(c1ccc(Cl)cc1)C1CCCN(C(=O)c2ccccc2)C1` (stereo not drawn) [Compound V-4], for which the IC50 on CYP1A2 is at most 5 µM; on CYP2C9, 5 to 20 µM; at CYP2C19 it was at most 5 µM; at CYP2D6, at most 5 µM; at CYP3A4 (setting [4]), over 50 µM; on CYP3A4 (read-out: CYP IC50 uM CYP3A4^b), 20 to 50 µM. The compound further gave an IC50 against hERG of 76 µM. Further, the half-life at 0.5 µM was under 10 min in series [1], under 10 min in series [2] and 10 to 30 min in series [3]. Also, the results for the inhibition at 1 µM at hERG (IKr current) (setting [5]), at hERG (IKr current) (setting [6]) and on hERG (IKr current) (setting [7]) were 13.2%, 16.2% and 10.2%, respectively. For the same compound, the inhibition at 3 µM stood at 18.8% at hERG (IKr current) (setting [5]), 20.5% on hERG (IKr current) (setting [6]) and 17% at hERG (IKr current) (setting [7]). The values for the inhibition at 10 µM at hERG (IKr current) (setting [5]), at hERG (IKr current) (setting [6]) and on hERG (IKr current) (setting [7]) were 23.1%, 26.4% and 19.8%, respectively. Moreover, the inhibition at 30 µM at hERG (IKr current) (setting [5]) worked out at 39.1%; on hERG (IKr current) (setting [6]) it was 39.5%; on hERG (IKr current) (setting [7]), 38.7%.

`O=C(c1ccncc1)C1CCCN(Cc2ccccc2)C1` (stereo not drawn) [IV-6]: the IC50 is 20 to 50 µM at CYP1A2; 5 to 20 µM at CYP2C9; at most 5 µM at CYP2C19; at most 5 µM on CYP2D6; at most 5 µM at CYP3A4 (setting [4]); 5 to 20 µM on CYP3A4 (read-out: CYP IC50 uM CYP3A4^b). For the same compound, it took 44.6 µM to reach half-maximal inhibition against hERG (IC50). In addition, the figures for the half-life at 0.5 µM in series [1], in series [2] and in series [3] were under 10 min, under 10 min and 10 to 30 min, respectively. The inhibition at 1 µM stood at 2.37% on hERG (IKr current) (setting [5]), 0% at hERG (IKr current) (setting [6]) and 4.74% on hERG (IKr current) (setting [7]). The inhibition at 3 µM on hERG (IKr current) (setting [5]), on hERG (IKr current) (setting [6]) and at hERG (IKr current) (setting [7]) was 0% in each case. The results for the inhibition at 10 µM at hERG (IKr current) (setting [5]), on hERG (IKr current) (setting [6]) and on hERG (IKr current) (setting [7]) were 10.2%, 7.16% and 13.1%, respectively. Moreover, the figures for the inhibition at 30 µM at hERG (IKr current) (setting [5]), at hERG (IKr current) (setting [6]) and on hERG (IKr current) (setting [7]) were 35.5%, 39.9% and 31.1%, respectively.

Regarding `O=C(c1ncccn1)C1CCCN(Cc2ccccc2)C1` (stereo not drawn) [IV-7], the IC50 on CYP1A2 was over 50 µM; at CYP2C9, over 50 µM; at CYP2C19 it was over 50 µM; on CYP2D6 it was 5 to 20 µM; on CYP3A4 (setting [4]) it was over 50 µM; at CYP3A4 (read-out: CYP IC50 uM CYP3A4^b), over 50 µM. At hERG, half-maximal inhibition (IC50) was put at 73.2 µM. Further, the half-life at 0.5 µM in [1] was at least 30 min; in [2], 10 to 30 min; in series [3] it was at least 30 min. In addition, the inhibition at 1 µM at hERG (IKr current) (setting [5]), at hERG (IKr current) (setting [6]) and on hERG (IKr current) (setting [7]) was 0% in each case. Besides, the inhibition at 3 µM is 0.73% on hERG (IKr current) (setting [5]), 1.46% on hERG (IKr current) (setting [6]) and 0% on hERG (IKr current) (setting [7]). Besides, the inhibition at 10 µM at hERG (IKr current) (setting [5]) stood at 1.99%; on hERG (IKr current) (setting [6]) it was 3.44%; at hERG (IKr current) (setting [7]), 0.54%. Besides, the values for the inhibition at 30 µM on hERG (IKr current) (setting [5]), at hERG (IKr current) (setting [6]) and on hERG (IKr current) (setting [7]) were 21.6%, 17.2% and 25.9%, respectively.
